From patent US7217704B2, “LPA receptor agonists and antagonists and methods of use” (The University of Tennessee Research Foundation, priority 2003, dated 2007)
“Also recorded” adds a separate entry of the source. Where two headings read alike, the source gives them in different places.

Assays:
[1] = target: T1, LPA1 (Homo sapiens, UniProt Q92633); assay: Ca2+ transients (agonism / inhibition of LPA response) in RH7777 cells stably expressing LPA1; assay type: cell-based; conditions: for effect at LPA1 in words: Ca2+ transients
T1 construct: expressed in transfected cells
T1 sequence (Q92633 whole entry): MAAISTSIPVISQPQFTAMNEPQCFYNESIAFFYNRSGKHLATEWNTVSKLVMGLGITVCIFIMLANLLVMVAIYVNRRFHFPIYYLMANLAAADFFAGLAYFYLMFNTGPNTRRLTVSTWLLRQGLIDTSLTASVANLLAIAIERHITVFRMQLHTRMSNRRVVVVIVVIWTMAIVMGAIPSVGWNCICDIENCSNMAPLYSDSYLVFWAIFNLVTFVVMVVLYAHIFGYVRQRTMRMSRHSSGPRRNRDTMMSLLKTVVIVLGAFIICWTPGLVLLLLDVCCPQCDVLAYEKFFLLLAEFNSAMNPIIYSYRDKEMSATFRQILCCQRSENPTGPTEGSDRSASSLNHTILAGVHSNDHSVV
Description: (§1) The culture medium (DMEM containing 10% FBS) was then replaced with modified Krebs solution (120 mM NaCl, 5 mM KCl, 0.62 mM MgSO4, 1.8 mM CaCl2, 10 mM HEPES, 6 mM glucose, pH 7.4) and the cells were serum starved for 6–8 hours (12 h for PC-3 cells). Cells were loaded with Fura-2 AM for 35 minutes in modified Krebs medium. The Fura-2 was removed before loading the plate in the FlexStation instrument by replacing the medium once again with 100 μl modified Krebs medium/well. Plates were incubated for 4 minutes in the instrument to allow for warming to 37° C. Changes in intracellular Ca^2+ concentration were monitored by measuring the ratio of emitted light intensity at 520 nm in response to excitation by 340 nm and 380 nm wavelength lights, respectively. Each well was monitored for 80–120 seconds. […] Time courses were recorded using the SoftMax Pro software (Molecular Devices, Sunnyvale, Calif.). Ca^2+ transients were quantified automatically by calculating the difference between maximum and baseline ratio values for each well.
(§2) Each FAP analog was tested for the ability to induce Ca^2+ transients in RH7777 cells transfected with LPA1-3 receptors (agonism), as well as the ability to inhibit LPAinduced Ca^2+ transients in the same cells (antagonism) (Table 3).

[2] = target: T2, LPA2 (Homo sapiens, UniProt Q9HBW0); assay: Ca2+ transients (agonism / inhibition of LPA response) in RH7777 cells stably expressing LPA2; assay type: cell-based
T2 construct: expressed in transfected cells
T2 sequence (Q9HBW0 whole entry): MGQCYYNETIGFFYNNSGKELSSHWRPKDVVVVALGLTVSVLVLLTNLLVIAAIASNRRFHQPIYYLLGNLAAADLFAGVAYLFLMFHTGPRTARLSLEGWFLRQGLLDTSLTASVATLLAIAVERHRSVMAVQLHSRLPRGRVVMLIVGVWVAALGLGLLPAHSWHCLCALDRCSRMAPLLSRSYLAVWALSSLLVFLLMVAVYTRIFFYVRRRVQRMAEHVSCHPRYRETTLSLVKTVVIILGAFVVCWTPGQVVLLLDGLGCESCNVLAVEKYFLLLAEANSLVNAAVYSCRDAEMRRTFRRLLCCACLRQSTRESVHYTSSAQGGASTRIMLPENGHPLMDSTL
Description: as §1, §2

[3] = target: T3, LPA3 (Homo sapiens, UniProt Q9UBY5); assay: Ca2+ transients (agonism / inhibition of LPA response) in RH7777 cells stably expressing LPA3; assay type: cell-based; conditions: for effect at LPA3 in words: Ca2+ transients
T3 construct: expressed in transfected cells
T3 sequence (Q9UBY5 1-353): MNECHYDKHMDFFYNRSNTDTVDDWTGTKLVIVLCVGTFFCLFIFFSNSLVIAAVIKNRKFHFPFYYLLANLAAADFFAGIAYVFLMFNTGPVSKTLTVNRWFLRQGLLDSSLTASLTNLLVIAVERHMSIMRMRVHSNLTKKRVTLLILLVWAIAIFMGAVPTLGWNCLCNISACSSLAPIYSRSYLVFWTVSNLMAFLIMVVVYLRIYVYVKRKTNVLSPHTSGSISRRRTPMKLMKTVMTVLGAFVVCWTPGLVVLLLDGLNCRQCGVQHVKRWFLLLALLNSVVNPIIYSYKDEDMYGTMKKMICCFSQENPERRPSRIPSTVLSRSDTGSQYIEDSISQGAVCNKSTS
Description: as §1, §2

[4] = test system: PC-3 cells; assay: Ca2+ transients in PC-3 cells endogenously expressing LPA1-3; assay type: cell-based, human; conditions: for effect in PC-3 cells in words: Ca2+ transients
Description: as §1
We tested the FAP analogs in PC-3 cells, which unlike the transfected RH7777 cells endogenously express LPA1-3 receptors.

[5] = induction of Ca2+ transients, RH7777 cells expressing LPA1, read-out: LPA1 EC50
[6] = inhibition of LPA-induced Ca2+ transients, RH7777 cells expressing LPA1, read-out: LPA1 IC50
[7] = induction of Ca2+ transients, RH7777 cells expressing LPA2, read-out: LPA2 EC50
[8] = inhibition of LPA-induced Ca2+ transients, RH7777 cells expressing LPA2, read-out: LPA2 IC50
[9] = induction of Ca2+ transients, RH7777 cells expressing LPA3, read-out: LPA3 EC50
[10] = inhibition of LPA-induced Ca2+ transients, RH7777 cells expressing LPA3, read-out: LPA3 (Ki)
[11] = inhibition of LPA-induced Ca2+ transients, RH7777 cells expressing LPA3, read-out: LPA3 IC50
[12] = inhibition of LPA-induced Ca2+ transients, PC-3 cells
[13] = inhibition of LPA-induced Ca2+ transients, PC-3 cells, read-out: PC-3 IC50
[14] = Homo sapiens, PC-3, read-out: PC-3 IC50
[15] = Homo sapiens, PC-3, read-out: PC-3 (Emax)
[16] = RH7777, maximal efficacy of the drug/maximal efficacy of LPA 18:1, read-out: LPA2 (Emax)
[17] = Homo sapiens, inhibition of LPA-induced Ca2+ transients, PC-3 cells, read-out: PC-3 IC50

Row | IC50 [2, 8] | EC50 [3, 9] | Compound | EC50 [1, 5] | IC50 [1, 6] | EC50 [2, 7] | Ki [3, 10] | IC50 [3, 11] | Ki [4, 12] | EC50 [1] | IC50 [1] | EC50 [3] | IC50 [4, 14] | other results
1 |  |  | CCCCCCCCOC[C@@H](COP(O)(O)=S)OCCCCCCCC [(S) enantiomer] |  |  |  |  |  |  |  |  |  |  | IC50 ([1]; for 200 nM LPA, formula (VII)A enantiomer, method not stated at b93, read-out: IC50 for LPA1): 184 nM
2 |  |  | CCCCCCCCCCOP(O)(O)=S [Compound 8a, Thiophosphoric acid O-decyl ester] |  |  |  | 49 nM | 122 nM | 521 nM | > 30000 nM | > 30000 nM | > 30000 nM | 1220 nM | 
3 |  |  | CCCCCCCCCCCCOP(O)(O)=S [Compound 8b, Thiophosphoric acid O-dodecyl ester] |  |  |  | 14 nM | 28 nM | 1300 nM | > 30000 nM | > 30000 nM | > 30000 nM | 2840 nM | 
4 | > 30000 nM | > 30000 nM | CCCCCCCCC=CCCCCCCCCOP(=O)(O)O [Compound 5f, Phosphoric acid monooctadec-9-enyl ester] | > 30000 nM | > 30000 nM | > 30000 nM |  | > 30000 nM |  |  |  |  |  | effect at LPA1 in words ([1]; RH7777 cells expressing LPA1): did not inhibit nor did it activate Ca^2+ mobilization; also recorded: potentiated LPA response; effect at LPA3 in words ([3]; RH7777 cells expressing LPA3): did not inhibit nor did it activate Ca^2+ mobilization; also recorded: potentiated LPA response; Emax ([4]; Homo sapiens, PC-3, maximal efficacy of the drug/maximal efficacy of LPA 18:1, read-out: PC-3 (Emax)): 11%
5 |  |  | CCC=CCCCCCCCCOP(O)(O)=S [Compound 8e, Thiophosphoric acid O-dodec-9-enyl ester] |  |  |  |  |  | 1460 nM | > 30000 nM | > 30000 nM | > 30000 nM | 2970 nM | EC50 [2]: 677 nM; IC50 [2]: > 30000 nM; Emax ([2]; RH7777, read-out: LPA2 (Emax)): 100%; IC50 [3]: 27 nM; Ki [3]: 14 nM; effect at LPA3 in words ([3]; RH7777 cells expressing LPA3): equipotent antagonist as 8f; effect in PC-3 cells in words ([4]; PC-3 cells): both independent activation and inhibition of LPA-induced Ca^2+ transients; Emax [4, 15]: 27%
6 | > 30000 nM | > 30000 nM | CCCCC=CCCCCCCCCOP(=O)(O)O [Compound 5d, Phosphoric acid monotetradec-9-enyl ester] |  |  | 397 nM | 58 nM | 96 nM | 123 nM |  |  |  |  | Emax [2, 16]: 58%; IC50 [4, 17]: 241 nM
7 | > 30000 nM | > 30000 nM | CCCCCCCCCCCCCCC(F)(F)P(=O)(O)O [Compound 11, (1,1-Difluoro-pentadecyl) Phosphonic Acid] | > 30000 nM | 2500 nM |  | 575 nM | 1510 nM |  |  |  |  |  | Ki ([1]; inhibition of LPA-induced Ca2+ transients, RH7777 cells expressing LPA1): 788 nM; inhibition of LPA response at LPA1 (partial antagonism) ([1]; maximal inhibition): 40%; Emax [2, 16]: 40%; EC50 ([2]; RH7777 cells expressing LPA2, read-out: LPA2 EC50): 10000 nM
8 | > 30000 nM | > 30000 nM | CCC=CCCCCCCCCOP(=O)(O)O [Compound 5c, Phosphoric acid monododec-9-enyl ester] | > 30000 nM | > 10000 nM | 717 nM | 27 nM | 32 nM | 390 nM |  |  |  |  | IC50 [4, 17]: 916 nM
9 |  |  | CCCCC=CCCCCCCCCOP(O)(O)=S [Compound 8f, Thiophosphoric acid O-tetradec-9-enyl ester] |  |  |  |  |  | 397 nM | > 30000 nM | > 30000 nM | > 30000 nM | 938 nM | effect at LPA1 in words ([1]; RH7777 cells expressing LPA1): no effect on the LPA-induced Ca^2+ mobilization; EC50 [2]: 480 nM; IC50 [2]: > 30000 nM; Emax ([2]; RH7777, read-out: LPA2 (Emax)): 150%; IC50 [3]: 28 nM; Ki [3]: 14 nM; effect in PC-3 cells in words ([4]; PC-3 cells): both independent activation and inhibition of LPA-induced Ca^2+ transients; Emax [4, 15]: 40%
10 | > 30000 nM | > 30000 nM | CCC=CCCCCCCCCCCOP(=O)(O)O [Compound 5e, Phosphoric acid monotetradec-11-enyl ester] |  |  | 4100 nM | 40 nM | 103 nM |  |  |  |  |  | Emax [2, 16]: 75%
11 |  |  | CCCCCCCCCCCCCCOP(O)(O)=S [Compound 8c, Thiophosphoric acid O-tetradecyl ester] |  |  |  | 76 nM | 162 nM |  | > 30000 nM | > 30000 nM | > 30000 nM | > 30000 nM | EC50 ([4]; Homo sapiens, PC-3, read-out: PC-3 EC50): > 30000 nM
12 |  |  | C=CCCCCCCCCOP(O)(O)=S [Compound 8d, Thiophosphoric acid O-dec-9-enyl ester] |  |  |  | 128 nM | 340 nM | 533 nM | > 30000 nM | > 30000 nM | > 30000 nM | 1000 nM | IC50 [2]: > 30000 nM; Emax ([2]; RH7777, read-out: LPA2 (Emax)): 56%
13 | > 30000 nM | > 30000 nM | C=CCCCCCCCCOP(=O)(O)O [Compound 5a, Phosphoric acid monodec-9-enyl ester] | > 30000 nM |  |  | 504 nM | 770 nM | 574 nM |  |  |  |  | Emax [2, 16]: 100%; IC50 [4, 17]: 1510 nM

Row | Compound | IC50 [2, 8] | EC50 [3, 9] | EC50 [1, 5] | IC50 [1, 6] | EC50 [2, 7] | Ki [3, 10] | IC50 [3, 11] | Ki [4, 12] | EC50 [1] | IC50 [1] | EC50 [3] | IC50 [4, 14] | other results
14 | CCCCCCCCCCCCP(=O)(O)O [Compound 9b, n-dodecyl-phosphonate] | > 30000 nM | > 30000 nM | > 30000 nM | > 30000 nM | > 30000 nM | 303 nM | 654 nM | 1270 nM |  |  |  |  | IC50 [4, 13]: 2640 nM
15 | CCCCCCCCCCCCCCCCCCP(=O)(O)O [Compound 9d, n-octadecyl-phosphonate] | > 30000 nM | > 30000 nM | > 30000 nM | > 30000 nM | > 30000 nM |  | > 30000 nM |  |  |  |  |  | EC50 ([4]; induction of Ca2+ transients, PC-3 cells, read-out: PC-3 EC50): > 30000 nM; IC50 [4, 13]: > 30000 nM
16 | CCCCCCCCCCCCCCP(=O)(O)O [Compound 9c, n-tetradecyl-phosphonate] | 5500 nM | > 30000 nM | > 30000 nM | ~10000 nM | > 30000 nM | 1120 nM | 3100 nM | 4620 nM |  |  |  |  | effect at LPA1 in words ([1]; RH7777 cells expressing LPA1): IC50 values in the micromolar range; effect at LPA2 in words ([2]; Ca2+ transients, RH7777 cells expressing LPA2): IC50 values in the micromolar range; Ki ([2]; inhibition of LPA-induced Ca2+ transients, RH7777 cells expressing LPA2): 3550 nM; effect at LPA3 in words ([3]; RH7777 cells expressing LPA3): IC50 values in the micromolar range; IC50 [4, 13]: 9670 nM
17 | CCCCCCCCCCP(=O)(O)O [Compound 9a, n-decyl-phosphonate] | > 30000 nM | > 30000 nM | > 30000 nM | > 30000 nM | > 30000 nM | 68 nM | 1200 nM | 1500 nM |  |  |  |  | IC50 [4, 13]: 3120 nM
18 | CCCCCC=CCCCOP(=O)(O)O [Compound 5b, Phosphoric acid monodec-4-enyl ester] | > 30000 nM |  | > 30000 nM | > 10000 nM | > 10000 nM |  |  | 735 nM |  |  | > 30000 nM |  | IC50 [3]: 830 nM; Ki [3]: 370 nM; IC50 [4, 17]: 1300 nM
